Source: patent US10501493B2, “Broad spectrum antibiotics” (priority 2011, dated 2019)
≈ marks a conversion by molar mass, not a printed value. Like-named read-outs stand apart in the source and are kept apart here.

How the values were obtained:
C. glutamicum DSM 44475 = experiment: In vitro antimicrobial activity, MIC by broth micro-dilution; assay type: cell-based; details: Corynebacterium glutamicum, DSM44475, read-out: MIC
[1] = tested on: E. coli MIG1655 LepB(P84L); experiment: as above; assay type: cell-based; details: Escherichia coli
In short: (§1)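 CLSI broth micro-dilution MIC against two-fold serial compound dilutions. Inoculum came from colonies grown 24 h at 35° C. or 28° C., suspended in cation-adjusted Mueller Hinton broth at 1*10^7 CFU/ml, of which 5 μl was added per 100 μl well. LepB(P84L) is a proline-mutant SPase strain with heightened arylomycin susceptibility.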

[2] = tested on: P. aeruginosa PA01 LepB(P84L); experiment: as above; assay type: cell-based; details: Pseudomonas aeruginosa
In short: as §1

R. equi DSM 6939 = experiment: as above; assay type: cell-based; details: Rhodococcus (subgen. Prescottella) equi, DSM6939, read-out: MIC
In short: as §1

S. agalactiae ATCC 13813 = experiment: as above; assay type: cell-based; details: Streptococcus agalactiae, ATCC13813, read-out: MIC
S. agalactiae COH-1 = experiment: as above; assay type: cell-based; details: Streptococcus agalactiae, COH1; S. agalactiae COH-1; read-out: MIC
S. aureus ATCC 29213 = experiment: as above; assay type: cell-based; details: Staphylococcus aureus, ATCC29213, read-out: MIC
[3] = tested on: S. aureus NCTC-8325 SpsB(P295); experiment: as above; assay type: cell-based; details: Staphylococcus aureus
[4] = tested on: S. epidermidis ATCC 12228; experiment: as above; assay type: cell-based; details: Staphylococcus epidermidis, ATCC12228, read-out: MIC
[5] = tested on: S. epidermidis RP62A SpsIB(S29P); experiment: as above; assay type: cell-based; details: Staphylococcus epidermidis
[6] = tested on: S. epidermidis RP62A SpsIB(S31P); experiment: as above; assay type: cell-based; details: Staphylococcus epidermidis
S. epidermidis RP62A = experiment: as above; assay type: cell-based; details: Staphylococcus epidermidis
S. pneumoniae D39 = experiment: as above; assay type: cell-based; details: Streptococcus pneumoniae
S. pneumoniae R800 = experiment: as above; assay type: cell-based; details: Streptococcus pneumoniae, read-out: MIC
In short: as §1

S. pyogenes ATCC 19615 = experiment: as above; assay type: cell-based; details: Streptococcus pyogenes, ATCC19615, read-out: MIC
S. pyogenes M15448 = experiment: as above; assay type: cell-based; details: Streptococcus pyogenes; S. pyogenes M15448; read-out: MIC
In short: as §1

E. coli ATCC 25922 = experiment: as above; assay type: cell-based
[7] = tested on: E. col ATCC 25922 LepB(P84L); experiment: as above; assay type: cell-based, E. coli; details: Escherichia coli, ATCC25922, read-out: MIC class, E. col ATCC 25922 LepB(P84L)
In short: as §1

S. aurues NCTC-8325 = experiment: as above; assay type: cell-based, S. aureus; details: Staphylococcus aureus, NCTC8325, read-out: MIC class, S. aurues NCTC-8325
E. coli SPase = molecular target: T1, E. coli SPase (Escherichia coli, UniProt P00803); experiment: Enzymatic fluorogenic substrate cleavage assay for IC50; assay type: biochemical
T1 construct: Full length His-tagged E. coli SPase proteins were expressed in E. coli BL21(DE3); His-tag; made in house; host or cells: E. coli BL21(DE3)
In short: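 Full-length His-tagged E. coli SPase (LepB, 2.5 nM) in 50 mM Tris-HCl pH 8.0, 100 mM NaCl, 10% glycerol, 1 mM EDTA, 1% NP-40 with two-fold compound dilutions; reaction started with fluorogenic abz/nitrotyrosine FRET peptide (added at 100 μM). Fluorescence (ex 314/em 416 nm) monitored 30 min at room temperature; IC50 from initial rates by nonlinear sigmoidal fit.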

S. aureus SPase = molecular target: T2, S. aureus SPase (Staphylococcus aureus, UniProt P0A070); experiment: as above; assay type: biochemical
T2 construct: Full length His-tagged S. aureus SPase protein was expressed similarly; His-tag; made in house; host or cells: E. coli BL21(DE3)

[8] = S. epidermidis RP62A, read-out: MIC
[9] = S. pneumoniae D39, read-out: MIC
[10] = Escherichia coli, ATCC25922; read-out: MIC class, E. coli ATCC 25922
[11] = NCTC8325, read-out: MIC class, S. aureus NCTC-8325 SpsB(P295)
[12] = RP62A, read-out: MIC class, S. epidermidis RP62A
[13] = D39, read-out: MIC class, S. pneumoniae D39

T1 sequence (P00803 whole entry): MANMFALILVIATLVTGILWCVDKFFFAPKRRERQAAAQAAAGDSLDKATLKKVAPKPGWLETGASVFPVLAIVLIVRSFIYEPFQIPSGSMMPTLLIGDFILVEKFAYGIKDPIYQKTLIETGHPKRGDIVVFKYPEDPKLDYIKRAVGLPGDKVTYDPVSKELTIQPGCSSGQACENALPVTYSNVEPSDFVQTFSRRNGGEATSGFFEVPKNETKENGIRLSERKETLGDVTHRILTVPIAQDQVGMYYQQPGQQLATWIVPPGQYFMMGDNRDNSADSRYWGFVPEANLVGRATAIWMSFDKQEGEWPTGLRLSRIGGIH
T2 sequence (P0A070 whole entry): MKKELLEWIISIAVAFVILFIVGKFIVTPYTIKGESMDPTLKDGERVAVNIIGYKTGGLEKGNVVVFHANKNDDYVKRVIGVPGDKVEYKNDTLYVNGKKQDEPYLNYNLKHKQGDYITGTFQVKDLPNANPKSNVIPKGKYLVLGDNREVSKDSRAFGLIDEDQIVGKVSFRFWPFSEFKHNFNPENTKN

Compound | MIC (C. glutamicum DSM 44475) [µg/mL] | MIC [1] [µg/mL] | MIC [2] [µg/mL] | MIC (R. equi DSM 6939) [µg/mL] | MIC (S. agalactiae ATCC 13813) [µg/mL] | MIC (S. agalactiae COH-1) [µg/mL] | MIC (S. aureus ATCC 29213) [µg/mL] | MIC ([3]; NCTC8325) [µg/mL] | MIC [4] [µg/mL] | MIC [5] [µg/mL] | MIC [6] [µg/mL] | MIC (S. epidermidis RP62A; [8]) [µg/mL] | MIC (E. coli ATCC 25922; [10]) [µg/mL] | MIC [3, 11] [µg/mL] | MIC (S. epidermidis RP62A; [12]) [µg/mL] | MIC (S. pneumoniae D39; [13]) [µg/mL] | MIC [7] [µg/mL] | MIC (S. aurues NCTC-8325) [µg/mL] | IC50 (E. coli SPase) [nM] | IC50 (S. aureus SPase) [nM] | further results
CCCCCCCCCCCCCCCC(=O)N(C)[C@H](CO)C(=O)N[C@H](C)C(=O)NCC(=O)N(C)[C@@H]1C(=O)N[C@@H](C)C(=O)N[C@H](C(=O)N[C@@H](C)C(=O)C(=O)N(C)C)Cc2ccc(O)c(c2)-c2cc1ccc2O [Compound 28] | 32 (≈ 31.8 µM) | 8 (≈ 7.94 µM) | > 64 | > 64 | 16 (≈ 15.9 µM) | 32 (≈ 31.8 µM) | > 64 | 32 (≈ 31.8 µM) | 16 (≈ 15.9 µM) | > 64 | > 64 | 4 (≈ 3.97 µM) |  |  |  |  |  |  |  |  | MIC (S. pneumoniae D39; [9]): 8 µg/mL (≈ 7.94 µM); MIC (S. pneumoniae R800): 16 µg/mL (≈ 15.9 µM); MIC (S. pyogenes ATCC 19615): 16 µg/mL (≈ 15.9 µM); MIC (S. pyogenes M15448): 32 µg/mL (≈ 31.8 µM)
CCCCCCCCCCCCCCCC(=O)N(C)[C@H](CO)C(=O)N[C@H](C)C(=O)NCC(=O)N(C)[C@@H]1C(=O)N[C@@H](C)C(=O)N[C@H](C(=O)N[C@H](C)C(=O)C(=O)N(C)C)Cc2ccc(O)c(c2)-c2cc1ccc2O [Compound 29] | 32 (≈ 31.8 µM) | 16 (≈ 15.9 µM) | > 64 | > 64 | 32 (≈ 31.8 µM) | 64 (≈ 63.5 µM) | > 64 | > 64 | 32 (≈ 31.8 µM) | > 64 | > 64 | 8 (≈ 7.94 µM) |  |  |  |  |  |  |  |  | MIC (S. pneumoniae D39; [9]): 16 µg/mL (≈ 15.9 µM); MIC (S. pneumoniae R800): 32 µg/mL (≈ 31.8 µM); MIC (S. pyogenes ATCC 19615): 16 µg/mL (≈ 15.9 µM); MIC (S. pyogenes M15448): 64 µg/mL (≈ 63.5 µM)
CCCCCCCCCCCCCCCC(=O)N(C)[C@H](CO)C(=O)N[C@H](C)C(=O)NCC(=O)N(C)[C@@H]1C(=O)N[C@@H](C)C(=O)N[C@H](C(=O)NCC(=O)N2CCC[C@H]2C(=O)O)Cc2ccc(O)c(c2)-c2cc1ccc2O [Compound 31] | > 64 | 16 (≈ 15.5 µM) | > 64 | > 64 | 8 (≈ 7.73 µM) | > 64 | > 64 | > 64 | 32 (≈ 30.9 µM) | > 64 | > 64 | 8 (≈ 7.73 µM) |  |  |  |  |  |  |  |  | MIC (S. pneumoniae D39; [9]): 4 µg/mL (≈ 3.86 µM); MIC (S. pneumoniae R800): 8 µg/mL (≈ 7.73 µM); MIC (S. pyogenes ATCC 19615): 8 µg/mL (≈ 7.73 µM); MIC (S. pyogenes M15448): 16 µg/mL (≈ 15.5 µM)
CCCCCCCCCCCCCCCC(=O)N(C)[C@H](CO)C(=O)N[C@H](C)C(=O)NCC(=O)N(C)[C@@H]1C(=O)N[C@@H](C)C(=O)N[C@H](C(=O)NCC(O)C(=O)OC)Cc2ccc(O)c(c2)-c2cc1ccc2O (some centres unmarked) [Compound 75] |  |  |  |  |  |  |  |  |  |  |  |  | > 64 | > 64 | < 8 | < 8 | < 8 | > 64 | < 1000 | > 10000 | 
CCCCCCCCCCCCC(=O)N(C)[C@H](CO)C(=O)N[C@H](C)C(=O)NCC(=O)N(C)[C@@H]1C(=O)N[C@@H](C)C(=O)N[C@H](C(=O)O)Cc2ccc(O)c(c2)-c2cc1ccc2O [Compound 86] |  |  |  |  |  |  |  |  |  |  |  |  | > 64 | < 8 | 16 to 64 (≈ 19.1 to 76.3 µM) | 16 to 64 (≈ 19.1 to 76.3 µM) | < 8 | > 64 | < 1000 | < 1000 | 
CCCCCCCCCCCCCCCC(=O)N(C)[C@H](CO)C(=O)N[C@H](C)C(=O)NCC(=O)N(C)[C@@H]1C(=O)N[C@@H](C)C(=O)N[C@H](C(=O)N[C@H](CO)Cc2c[nH]c3ccccc23)Cc2ccc(O)c(c2)-c2cc1ccc2O [Compound 74] |  |  |  |  |  |  |  |  |  |  |  |  | > 64 | > 64 | > 64 | 16 to 64 (≈ 15.2 to 60.8 µM) | > 64 | > 64 | 1000 to 10000 | > 10000 | 
CCCCCCCCCCC(=O)N(C)[C@H](CO)C(=O)N[C@H](C)C(=O)NCC(=O)N(C)[C@@H]1C(=O)N[C@@H](C)C(=O)N[C@H](C(=O)O)Cc2ccc(O)c(c2)-c2cc1ccc2O [Compound 85] |  |  |  |  |  |  |  |  |  |  |  |  | > 64 | > 64 | < 8 | > 64 | 16 to 64 (≈ 19.7 to 78.9 µM) | > 64 | < 1000 | 1000 to 10000 | 
CCCCCCCCCCCCCCCC(=O)N(C)[C@H](CO)C(=O)N[C@H](C)C(=O)NCC(=O)N(C)[C@@H]1C(=O)N[C@@H](C)C(=O)N[C@H](C(=O)O)Cc2ccc(OC)c(c2)-c2cc1ccc2OC [Compound 77] |  |  |  |  |  |  |  |  |  |  |  |  |  | 16 to 64 (≈ 17.6 to 70.4 µM) | > 64 | 16 to 64 (≈ 17.6 to 70.4 µM) | < 8 | > 64 | > 10000 | 1000 to 10000 | MIC (E. coli ATCC 25922; Escherichia coli, ATCC25922, read-out: MIC class, E. coli ATCC 25922): > 64 µg/mL
CCCCCCCCCCCCCCCC(=O)N(C)[C@H](CO)C(=O)N[C@H](C)C(=O)N[C@@H](C)C(=O)N(C)[C@@H]1C(=O)N[C@@H](C)C(=O)N[C@H](C(=O)O)Cc2ccc(O)c(c2)-c2cc1ccc2O [Compound 91] |  |  |  |  |  |  |  |  |  |  |  |  | > 64 | > 64 | < 8 | < 8 | > 64 | > 64 | < 1000 | < 1000 | 
CCCCCCCCCCCCCCCC(=O)N(C)[C@H](CO)C(=O)N[C@H](C)C(=O)NCC(=O)N(C)[C@@H]1C(=O)N[C@@H](C)C(=O)N[C@H](C(=O)NC(CO)(CO)CO)Cc2ccc(O)c(c2)-c2cc1ccc2O [Compound 70] |  |  |  |  |  |  |  |  |  |  |  |  | > 64 | > 64 | < 8 | 16 to 64 (≈ 16.3 to 65 µM) | < 8 | > 64 | < 1000 | > 10000 | 
